Biological target: Peptidyl-prolyl cis-trans isomerase FKBP1A (Homo sapiens, UniProt P62942)
Assay: Binding affinity towards immunophilin cytosolic protein FK506 binding protein 12 was determined

Peptidyl-prolyl cis-trans isomerase FKBP1A, sequence (P62942 whole entry): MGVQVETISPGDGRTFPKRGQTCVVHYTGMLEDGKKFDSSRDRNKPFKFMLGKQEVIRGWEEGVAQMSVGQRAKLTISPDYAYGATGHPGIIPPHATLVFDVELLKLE

Ki | SMILES
207 nM | C=CCC(CC=C)C(=O)C[C@H](O)[C@@H](C)[C@H](OC(=O)[C@@H]1CCCCN1C(=O)C(=O)[C@]1(O)O[C@H]([C@H](/C=C\C)OC)CC[C@H]1C)[C@H](C)C[C@@H]1CC[C@@H](O)[C@H](OC)C1
400 nM | CCC[C@H](/C=C(\C)C[C@H](C)C[C@H](OC)[C@H]1O[C@@](O)(C(=O)C(=O)N2CCCC[C@H]2C(=O)O[C@H](/C(C)=C/[C@@H]2CC[C@@H](O)[C@H](OC)C2)C(C)C)[C@H](C)C[C@@H]1OC)C(C)=O

Reference: ChEMBL document CHEMBL1127921, “Synthesis and study of a non macrocyclic FK506 derivative” (Bioorg Med Chem Lett, 1994)
